Reference: US9457008B2, “Joint product comprising synephrine and topiramate” (Institute of Pharmacology and Toxicology Academy of …, priority 2012, dated 2016)

Assay: Effects of different dissolution media on release rate of sustained-release pellet of topiramate
Type: physicochemical
Conditions: 0.1 mol/L HCl (pH1.2), 37° C.
Procedure: In order to verify whether acidic, basic solvent media would influence the release rate of the sustained-release pellets of the present invention, 0.1 mol/L HCl (pH1.2) was prepared as artificial gastric fluid, […] phosphate buffer (pH6.8) was prepared as artificial intestinal fluid, and these media and water (500 ml) were used as release media, rotation speed was 100 rpm, 37° C. Samples (5 ml, supplemented with equivalent volume of media at the meantime) were taken at 1, 2, 4, 8, 12, 16, 20, 24 h, filtrated, and the subsequent filtrates were used as test solutions. High performance liquid chromatography (Appendix V D, Part II of Chinese Pharmacopoeia, 2010 Edition) was used, octylsilane-bonded silica gel was used as packing agent, 50% methanol was mobile phase, differential refractive detector was used, flow rate was 1.5 ml per minute. 200 μl of test solution was taken, injected in liquid chromatograph, the peak area of topiramate as main drug was recorded; topiramate was separately taken as control sample and measured by the same method, and accumulative release percentages of drug at different time points were calculated by external standard method. The release profile of sample of Batch 1 in Example 16 (2) in the above media were drawn, and the results were shown in FIG. 4.

stability in pH1.2 artificial gastric fluid: unstable
SMILES: CC1(C)O[C@@H]2[C@@H](CO[C@@]3(COS(N)(=O)=O)OC(C)(C)O[C@@H]23)O1 [topiramate, 2,3,4,5-bis-O-(1-methylethylene)-β-D-fructopyranose sulfamate]
